The assay deals with LAPC9-AI prostate tumor xenografts. Kind of assay: Established LAPC9-AI prostate tumor xenografts in tibiae, monotherapy and combination with Carboplatin. The format is in vivo, SCID mice. As to conditions: day 33; MAb 2 mg loading then 1.0 mg i.p. two times a week, 7 doses; Carboplatin 40 mg/kg i.v. days 7, 11, 15, 19, 22, 26; vs control antibody. Here is the method: FIG. 16. […] The tumors were allowed to establish for 7 days, at which time the animals were randomized and assigned to four different groups (n=10 in each group) as indicated in the graph. […] Carboplatin (40 mg/kg) was administered to the mice intravenously (i.v.) on days 7, 11, 15, 19, 22 and 26. On day 33 all mice were sacrificed and the tumors were excised and weighed on an electronic balance.
The tumors were allowed to establish for 7 days, at which time the animals were randomized and assigned to four different groups (n=10 in each group). […] Carboplatin (40 mg/kg) was administered to the mice intravenously (i.v.) on days 7, 11, 15, 19, 22 and 26. On day 33 all mice were sacrificed and the tumors were excised and weighed on an electronic balance.

In the case of `N.N.O=C([O-])C1(C(=O)[O-])CCC1.[Pt+2]` [Carboplatin, reference compound], the “inhibition of tumor growth (tumor weight)” value stood at 87%.

The values above are taken from patent US20100047166A1, “ANTIBODIES AND RELATED MOLECULES THAT BIND TO 58P1D12 PROTEINS” (priority 2008, published 2010).
